From publication PMC8073005, “Antifungal Activity and DNA Topoisomerase Inhibition of Hydrolysable Tannins from Punica granatum L” (International Journal of Molecular Sciences, 2021)
Converted amounts (≈) assume the structure as drawn. “And” between values parts separate entries of the source, which are not always exact repeats. Equal entries are not always repeated.

Columns and labels:
Candida parapsilosis 7 = assay: MIC, broth microdilution (human pathogens); assay type: cell-based; conditions: Lodderomyces parapsilosis; Candida parapsilosis 7; SDB, 30 °C, 48 h; read-out: Minimum inhibitory concentration (MIC)
Candida albicans 44 = assay: MIC, broth microdilution (human pathogens); assay type: cell-based; conditions: Candida albicans 44; SDB, 30 °C, 48 h; read-out: Minimum inhibitory concentration (MIC)
Coniella granati M0_C2 = assay: MIC, micro-spectrophotometric growth assay (phytopathogens); assay type: cell-based; conditions: for growth reduction: C. granati, 48 h of incubation; for MIC: Coniella granati M0_C2, PDB, 24 °C, dark, imazalil at label dose, read-out: Minimum inhibitory concentration (MIC)
[1] = test system: C. albicans 1 (clinically isolated strain); assay: Time-kill curves; assay type: cell-based, Candida albicans; conditions: compound at its MIC value, 0–96 h
[2] = test system: Saccharomyces cerevisiae 42; assay: MIC, broth microdilution (human pathogens); assay type: cell-based; conditions: Saccharomyces cerevisiae 42; SDB, 30 °C, 48 h; read-out: Minimum inhibitory concentration (MIC)
[3] = test system: Candida albicans ATCC 10321; assay: MIC, broth microdilution (human pathogens); assay type: cell-based; conditions: ATCC10321; Candida albicans ATCC 10321; SDB, 30 °C, 48 h; read-out: Minimum inhibitory concentration (MIC)
Candida parapsilosis = assay: MIC, broth microdilution (human pathogens); assay type: cell-based; conditions: Lodderomyces parapsilosis; Candida parapsilosis; SDB, 30 °C, 48 h; read-out: Minimum inhibitory concentration (MIC)
Candida zeylanoides 33 = assay: MIC, broth microdilution (human pathogens); assay type: cell-based; conditions: Dujonia zeylanoides; Candida zeylanoides 33; SDB, 30 °C, 48 h; read-out: Minimum inhibitory concentration (MIC)
[4] = test system: Cryptococcus var. grubii H99 serotype A; assay: MIC, broth microdilution (human pathogens); assay type: cell-based; conditions: Cryptococcus var. grubii H99 serotype A; SDB, 30 °C, 48 h; read-out: Minimum inhibitory concentration (MIC)
Candida albicans SC 5314 = assay: Time-kill curves; assay type: cell-based; conditions: C. albicans SC 5314; compound at its MIC value; 0–96 h

Structure (SMILES)	MIC (Candida parapsilosis 7) [µM]	MIC (Candida albicans 44) [µM]	growth reduction (Coniella granati M0_C2)	MIC (Coniella granati M0_C2)	time-kill curve (susceptibility time-course) [1]	MIC [2] [µM]	MIC [3] [µM]	MIC (Candida parapsilosis) [µM]	MIC (Candida zeylanoides 33) [µM]	MIC [4] [µM]	time-kill curve (susceptibility time-course) (Candida albicans SC 5314)
O=C1OC[C@H]2OC(O)[C@H](O)[C@@H](O)[C@@H]2OC(=O)c2cc(O)c(O)c(O)c2-c2c(O)c(O)c3oc(=O)c4c(c(O)c(O)c5oc(=O)c2c3c54)-c2c1cc(O)c(O)c2O (mixture of isomers) [Punicalin, punicalin]	3.8	127	up to 92%	255.6 µM and 256 µM	after 60 h of incubation, punicalin becomes less effective than punicalagin	3.8	127	127	127	127	–
O=c1oc2c(O)c(O)cc3c(=O)oc4c(O)c(O)cc1c4c23 [Ellagic Acid, ellagic acid]	331 (≈ 100 µg/mL)	2.5 (≈ 0.755 µg/mL)	up to 60%	165.4 µM and 165 µM	lowest activity compared with the other compounds	662 (≈ 200 µg/mL)	2.5 (≈ 0.755 µg/mL)	662 (≈ 200 µg/mL)	331 (≈ 100 µg/mL)	662 (≈ 200 µg/mL)	better antifungal activity against the reference C. albicans strain after 72 h of exposure
